Measurements published in patent publication US9833466B2, “Treatment of leukemia with histone deacetylase inhibitors” (Acetylon Pharmaceuticals Inc., priority 2014, dated 2017).

How the values were obtained:
Type in all cases: cell-based
Kasumi-1 = Kasumi-1 cell cycle by propidium iodide staining (sub-G1); details: 72 hours, increasing concentrations
Description: HDAC inhibition causing AML cell death (apoptosis) was measured by staining the AML cells with propidium iodide after the cells were exposed to different concentrations of the HDAC inhibitors. Four distinct cell populations, G1, S, G2, and sub-G1, were separated and quantified based on their propidium iodide staining patterns. The sub-G1 cells are those dying or dead cells, and the percentage of this population was a reflection of the tested compound cytotoxicity.

NB4 = assay: Surface CD11b by FACS in NB4; details: combination with azacitidine vs single agent, 72 hours
Description: Briefly, the AML cell lines HL-60 (FIGS. 4A and 4D), Kasumi-1 (FIGS. 4B and 4E) and NB4 (FIGS. 4C and 4F) were treated with the indicated concentrations of compounds. In FIGS. 4A-C, surface levels of myeloid differentiation marker CD11b were determined by FACS at 72 hours post-treatment. […] In FIGS. 4D-F, apoptosis was assessed by flow cytometry by measuring Annexin V binding and cellular permeability to propidium iodide at 96 hours post-treatment. The relative fraction of cells that were alive, in early apoptosis, in late apoptosis, or dead was then determined.
FIGS. 7A-F show the combination of HDAC inhibitors and azacitidine in the NB4 cell line. Briefly, cells were treated with DMSO, Compound B, Compound A, or Compound E as single agent or in combination with azacitidine at the indicated concentrations. Surface levels of CD11b were determined 72 hours post-treatment (FIGS. 7A, 7C, 7E), and apoptosis was assessed 96 hours post-treatment (FIGS. 7B, 7D, 7F).

[1] = tested on: AML cell lines (Kasumi-3, HL-60, and THP-1); assay: AML cell viability assay (Cell Titer Glo), HDAC inhibitor combined with azacitidine; details: combination with azacitidine; 72 hours; synergistic only when CI<0.7
Description: With the same amount of cultured AML cells in each well, serial dilutions of one compound were added into each row of the wells from left to right, and serial dilutions of the second compound were mixed into each column of these wells from top to bottom. Therefore, those AML cells on the testing plate were exposed to various combinations of the two compounds at different concentrations. The viable cells in each well were measured after 72 hours incubation at 37° C., and the percentage of unviable cells was calculated and normalized to the total cells. […] The CI values were plotted as a function of Fa, as shown in FIGS. 1A-D. In order to avoid any possible false positives due to experimental data variability, a combination was determined “synergistic” only when CI<0.7, as shown in the shaded area of each graph. […] The synergism is driven predominantly by HDAC1/2 inhibition.

[2] = tested on: HL-60, NB4, MV4-11, Kasumi-1, THP-1, and MOLM-13; assay: Single agent activity on viability in AML cell lines; details: 72 hours, six AML cell lines
Description: FIGS. 3A-D show the single agent activity on viability in AML cell lines. Briefly, each of the following cell lines: HL-60, THP-1, MV-4-11, Kasumi-1, NB4, and MOLM-13 were exposed to increasing concentrations of either Compound B (FIG. 3A), Compound A (FIG. 3B), Compound E (FIG. 3C), or azacitidine (FIG. 3D) to determine their response to drug treatment. […] The panel of cell lines was also treated with azacitidine to measure their sensitivity.
FIGS. 8A-F show the single agent activity on viability in AML cell lines. […] Viability was calculated as a percentage of control (DMSO treated cells). Growth inhibition curves were generated using GraphPad Prism 6.
FIG. 17. […] (B-D) MV4-11 cells were treated with indicated concentrations of compounds. (B) Surface levels of myeloid differentiation marker CD11b were determined by FACS at 72 h post-treatment. […] (C) Cell cycle was assessed by flow cytometry after incorporation of EdU and staining with Far Red at 72 h post-treatment. The distribution of cells among G0/G1 phase, G2/M phase, S phase and subG1 phase was determined. […] (D) Apoptosis was assessed by flow cytometry via measuring Annexin V binding and cellular permeability to propidium iodide at 96 h post-treatment. The relative fraction of cells that were live, in early apoptosis, in late apoptosis or dead was then determined.

MV4-11 = assay: Cell cycle by flow cytometry (EdU, Far Red) in MV4-11; details: single agent, 72 h
Description: The distribution of cells among G0/G1 phase, G2/M phase, S phase and subG1 phase was determined. […] The relative fraction of cells that were live, in early apoptosis, in late apoptosis, or dead was then determined.
FIG. 17. […] (A) Indicated AML cell lines were exposed to increasing concentrations of Compound J to confirm their sensitivity to HDAC1/2 inhibition. (B-D) MV4-11 cells were treated with indicated concentrations of compounds. (B) Surface levels of myeloid differentiation marker CD11b were determined by FACS at 72 h post-treatment. […] (C) Cell cycle was assessed by flow cytometry after incorporation of EdU and staining with Far Red at 72 h post-treatment. The distribution of cells among G0/G1 phase, G2/M phase, S phase and subG1 phase was determined. […] (D) Apoptosis was assessed by flow cytometry via measuring Annexin V binding and cellular permeability to propidium iodide at 96 h post-treatment. The relative fraction of cells that were live, in early apoptosis, in late apoptosis or dead was then determined.

Compound	sub-G1 cells (dying or dead cells) (Kasumi-1)	CD11b positive cells (NB4)	synergy of cytotoxicity with azacitidine (CI vs Fa) [1]	viability IC50 relative to HDAC selective range [2]	cell cycle arrest (MV4-11)
O=C(CCCCCCNC(=O)c1cnc(N(c2ccccc2)c2ccccc2Cl)nc1)NO [Compound B, 2-((2-chlorophenyl)(phenyl)amino)-N-(7-(hydroxyamino)-7-oxoheptyl)pyrimidine-5-carboxamide]	Increased amount of sub-G1 cells	synergistic increases of CD11b positive cells			
O=C(CCCCCCNC(=O)c1cnc(N(c2ccccc2)c2ccccc2)nc1)NO [Compound A, 2-(diphenylamino)-N-(7-(hydroxyamino)-7-oxoheptyl)pyrimidine-5-carboxamide]		synergistic increases of CD11b positive cells	significant synergistic cell killing	has some inhibitory effects on HDAC1/2 at their IC50 values	induced cell cycle arrest as well as apoptosis
Nc1ccc(-c2cccs2)cc1NC(=O)c1ccc2c(c1)cc(C1CC1)n2CCN1CCOCC1 [Compound E, N-(2-amino-5-(thiophen-2-yl)phenyl)-2-cyclopropyl-1-(2-morpholinoethyl)-1H-indole-5-carboxamide]	Increased amount of sub-G1 cells		the most synergy	within its HDAC1/2 selective range	induced cell cycle arrest as well as apoptosis
